Assay results published in patent publication US20230000842A1, “METHODS OF TREATING CARTILAGE DISORDERS THROUGH INHIBITION OF CLK AND DYRK” (SAMUMED, LLC, priority 2019, published 2023).

Assays:
[1] = tested on: Wnt pathway activity (SW480 colon carcinoma cells stably expressing the Sp5-Luc reporter); test: Wnt pathway activity screening assay (Sp5-Luc reporter gene assay); settings: Homo sapiens, SW480, Table 4; SW480 cells stably expressing Sp5-Luc reporter, 10-point dose-response from 10 μM, 36 to 48 hours
CLK2 kinase = CLK2 kinase (Homo sapiens, UniProt P49760); test: CLK2 kinase activity assay (Z-lyte FRET); type: biochemical; settings: Z-lyte Ser/Thr 6 peptide, 60 μM ATP, 1 h at room temperature;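 further: FRET read-out as coumarin to fluorescein emission ratio, unphosphorylated peptide as 0% and phosphorylated peptide as 100% controls, duplicate reactions, non-linear regression fit of dose-response curves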
Chain of CLK2 kinase (P49760 whole entry): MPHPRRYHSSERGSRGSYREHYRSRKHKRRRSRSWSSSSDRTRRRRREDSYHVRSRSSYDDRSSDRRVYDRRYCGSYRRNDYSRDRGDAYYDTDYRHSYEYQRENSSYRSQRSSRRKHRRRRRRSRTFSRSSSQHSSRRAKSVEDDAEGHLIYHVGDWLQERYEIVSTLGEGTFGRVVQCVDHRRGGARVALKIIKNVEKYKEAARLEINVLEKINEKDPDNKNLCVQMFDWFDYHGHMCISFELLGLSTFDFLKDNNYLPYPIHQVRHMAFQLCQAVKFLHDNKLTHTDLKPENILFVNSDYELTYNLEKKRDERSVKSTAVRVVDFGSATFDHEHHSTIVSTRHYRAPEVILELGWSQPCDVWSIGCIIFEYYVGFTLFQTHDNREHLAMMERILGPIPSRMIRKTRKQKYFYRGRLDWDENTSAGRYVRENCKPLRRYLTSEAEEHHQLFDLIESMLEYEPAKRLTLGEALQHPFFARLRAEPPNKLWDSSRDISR

[2] = tested on: MMP-3 levels in supernatant of chondrocytes stimulated with IL1-β; test: Chondrocyte protection assay compound screening (MMP-3 LANCE Ultra); type: cell-based, human; settings: Homo sapiens, Chondrocyte, IL1-β 10 ng/mL overnight, 11-point curves from 3 μM to 0.05 nM; for Emax: read-out: Maximum % Inhibition
Procedure, shortened: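 Primary human chondrocytes (passage 2–5) in differentiation medium were stimulated with 10 ng/mL IL1-β for an overnight incubation at 37 °C. MMP-3 in 1:7-diluted supernatant was read by TR-FRET immunoassay against a standard curve, normalised to IL1-β-stimulated wells; EC50 and maximum % inhibition came from nonlinear regression.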

CLK3 kinase = CLK3 kinase (Homo sapiens, UniProt P49761); test: CLK3 kinase activity assay (Z-lyte FRET); type: biochemical; settings: Z-lyte Ser/Thr 18 peptide, 156 μM ATP, 1 h at room temperature;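 further: kinase activity read as coumarin/fluorescein emission ratio by FRET, unphosphorylated peptide as 0% and phosphorylated peptide as 100% control, values from non-linear regression of dose-response curves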
Chain of CLK3 kinase (P49761 whole entry): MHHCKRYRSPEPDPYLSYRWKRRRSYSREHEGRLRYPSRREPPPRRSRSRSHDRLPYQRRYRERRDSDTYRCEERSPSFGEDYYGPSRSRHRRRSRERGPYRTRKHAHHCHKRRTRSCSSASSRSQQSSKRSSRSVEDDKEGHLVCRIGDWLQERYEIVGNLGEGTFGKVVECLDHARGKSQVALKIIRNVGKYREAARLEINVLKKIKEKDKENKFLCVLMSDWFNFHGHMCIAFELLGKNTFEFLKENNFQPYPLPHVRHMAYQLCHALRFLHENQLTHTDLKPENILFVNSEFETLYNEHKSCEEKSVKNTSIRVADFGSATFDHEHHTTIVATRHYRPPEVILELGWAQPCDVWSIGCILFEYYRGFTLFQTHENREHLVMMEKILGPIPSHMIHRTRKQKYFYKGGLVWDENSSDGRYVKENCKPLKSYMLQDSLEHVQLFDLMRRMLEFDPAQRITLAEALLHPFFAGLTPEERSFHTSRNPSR

SMILES | EC50 [1] [µM] | EC50 (CLK2 kinase) [µM] | EC50 (CLK3 kinase) [µM] | EC50 [2] [µM] | Emax [2] [%]
COc1ccc(NC(=O)c2n[nH]cc2/C=C/c2cncc(CN3CCCCC3)c2)cn1 [compound 24] | 1.45 | 0.026 | 1.25 | ≥ 3 | 74.1
O=C(Nc1ccc(C2CCC(F)(F)C2)nc1)c1n[nH]cc1C#Cc1cccnc1 (stereo not shown) [compound 27] | > 10 | 0.032 | > 10 | ≥ 3 | 88.5
Cc1n[nH]c2ccc(-c3cncc(N4CC(C)(N)C4)n3)cc12 [compound 36] | 3.51 | 0.07 | 3.4 | 1.61 | –
CCC1(N)CN(c2cncc(-c3ccc4[nH]nc(C)c4c3)n2)C1 [compound 37] | 1.73 | 0.043 | 5.5 | ≥ 3 | 55.1
Cc1n[nH]c2ccc(-c3cncc(N4CCC[C@H](N)C4)n3)cc12 [compound 38] | 1.43 | 0.035 | 8.01 | ≥ 3 | 97.5
Cc1n[nH]c2ccc(-c3cncc(N4CCC(O)CC4)n3)cc12 [compound 39] | 1.9 | 0.025 | 4.26 | 0.0478 | 60.8
Cc1n[nH]c2ccc(-c3cncc(N[C@H]4CC[C@H](O)CC4)n3)cc12 [compound 43] | 0.095 | 0.001 | 0.309 | ≥ 3 | 41.9
Cc1n[nH]c2ccc(-c3cncc(NCC4(F)CNC4)n3)cc12 [compound 48] | 0.78 | 0.003 | 1.1 | 2.27 | 100
Cc1n[nH]c2ccc(-c3cncc(OCC4(F)CNC4)n3)cc12 [compound 49] | 3.25 | 0.006 | 2.2 | 0.0035 | 66.1
Cc1n[nH]c2ccc(-c3cncc(OC[C@@H]4Cc5ccccc5CN4)n3)cc12 [compound 50] | 2.81 | 0.027 | 5.73 | ≥ 3 | 44.4
Cc1n[nH]c2ccc(-c3cc(OC[C@H](N)Cc4ccccc4)cnn3)cc12 [compound 53] | 1.15 | 0.019 | 3.49 | ≥ 3 | 74.9
O=C(Nc1cccnc1)c1n[nH]c2ncc(-c3cccnc3)cc12 [compound 61] | 0.795 | 0.008 | 0.916 | 0.0022 | 69.2
O=C(Nc1ccc(CN2CCCC2)cc1)c1n[nH]c2ccc(-c3cccnc3F)cc12 [compound 65] | 0.196 | 0.001 | 0.047 | ≥ 3 | 98.1
CN1CCC(Oc2ccc(NC(=O)c3n[nH]c4ccc(-c5ccc(N)nc5)cc34)cc2)CC1 [compound 66] | 0.477 | 0.001 | 0.049 | 0.0049 | 62.6
COc1ccc(NC(=O)c2n[nH]c3ccc(-c4cncc(CO)c4)cc23)cn1 [compound 67] | 0.0966 | 0.001 | 0.041 | ≥ 3 | 48.7
O=C(Nc1ccc(N2CCCC2)nc1)c1n[nH]c2ccc(-c3cncc(CN4CCC4)c3)cc12 [compound 68] | > 10 | 0.001 | 0.139 | ≥ 3 | 26.6
O=C(Nc1cccnc1)c1n[nH]c2ccc(-c3cncc(CN4CC(CO)(CO)C4)c3)cc12 [compound 69] | > 10 | 0.002 | 0.062 | 0.0697 | 12.3
NC(=O)c1n[nH]c2ccc(-c3cncc(CN4CCCCC4)c3)cc12 [compound 74] | 1.96 | 0.012 | 0.498 | 0.0023 | 62.7
O=C(NCc1cc(F)cc(F)c1)c1n[nH]c2ccc(-c3cncc(CN4CCCCC4)c3)cc12 [compound 77] | 1.82 | 0.006 | 1.67 | ≥ 3 | 84.8
O=C(Nc1ccc(OC(CO)CO)nc1)c1n[nH]c2ccc(-c3cncc(CN4CCCCC4)c3)cc12 [compound 83] | 0.5 | 0.005 | 0.073 | 0.303 | –
NC(=O)c1ccc(NC(=O)c2n[nH]c3ccc(-c4cncc(CN5CCCCC5)c4)cc23)cn1 [compound 87] | 0.013 | 0.001 | 0.011 | 2.22 | 100
O=C(Nc1ccc(C(=O)N2CCCC2)nc1)c1n[nH]c2ccc(-c3cncc(CN4CCCCC4)c3)cc12 [compound 88] | 0.03 | 0.001 | 0.012 | ≥ 3 | 100
CS(=O)(=O)c1ccc(NC(=O)c2n[nH]c3ccc(-c4cncc(CN5CCCCC5)c4)cc23)cn1 [compound 89] | 0.027 | 0.001 | 0.014 | 0.0055 | 79.8

More lines, main results first:

EC50 [1] [µM] | EC50 (CLK2 kinase) [µM] | EC50 (CLK3 kinase) [µM] | SMILES | EC50 [2] [µM] | Emax [2] [%]
1.5 | 0.001 | 0.039 | O=C(Nc1ccc(N2CC(CO)(CO)C2)nc1)c1n[nH]c2ccc(-c3cncc(CN4CCCCC4)c3)cc12 [compound 90] | 0.0067 | 29.7
0.03 | 0.001 | 0.017 | Nc1ncc(NC(=O)c2n[nH]c3ccc(-c4cncc(CN5CCCCC5)c4)cc23)cn1 [compound 96] | 0.18 | 100
0.43 | 0.002 | 0.135 | O=C(Nc1cnccn1)c1n[nH]c2ccc(-c3cncc(CN4CCCCCC4)c3)cc12 [compound 99] | ≥ 3 | 39.6
0.21 | 0.001 | 0.037 | O=C(Nc1cccnc1)c1n[nH]c2ccc(-c3cncc(CN4CCS(=O)(=O)CC4)c3)cc12 [compound 100] | 0.616 | 8.6
1.31 | 0.002 | 1.43 | O=C(Nc1ccc(CN2CCCC2)cc1)c1n[nH]c2ccc(-c3cncnc3)cc12 [compound 103] | 0.307 | 36.3
1.66 | 0.002 | 0.378 | O=C(Nc1ccc(CN2CCCC2)cc1)c1n[nH]c2ccc(-c3cnccn3)cc12 [compound 104] | 0.0071 | 72.8
2.4 | 0.001 | 2.44 | CC(C)NC(=O)c1n[nH]c2ccc(-c3cncc(NC4CCNCC4)n3)cc12 [compound 105] | 2.74 | 53.1
0.315 | 0.001 | 0.101 | Cn1cc(-c2cc3c(C(=O)Nc4ccc(OCCN5CCCC5)cc4)n[nH]c3cc2F)cn1 [compound 108] | ≥ 3 | 32.1
0.23 | 0.001 | 0.079 | CN1CCC(Nc2ccc(NC(=O)c3n[nH]c4cc(F)c(-c5cnn(C)c5)cc34)cn2)CC1 [compound 109] | 1.16 | 100
0.12 | 0.001 | 0.048 | CN1CCC(Oc2ccc(NC(=O)c3n[nH]c4cc(F)c(-c5cnn(C)c5)cc34)cn2)CC1 [compound 110] | 1.08 | 87.2
1.15 | 0.001 | 0.089 | CN1CCC(Oc2ncc(NC(=O)c3n[nH]c4cc(F)c(-c5cnn(C)c5)cc34)cc2F)CC1 [compound 111] | 0.0126 | 76.2
0.793 | 0.001 | 0.116 | Cn1cc(-c2cc3c(C(=O)Nc4ccc5c(c4)CNC5)n[nH]c3cc2F)cn1 [compound 112] | 1.2 | 88.3
0.451 | 0.001 | 0.133 | O=C(Nc1ccc(CN2CCCC2)cc1)c1n[nH]c2ccc(-c3cnn(C4CC4)c3)cc12 [compound 113] | ≥ 3 | 57
0.095 | 0.001 | 0.048 | Cc1ncc(NC(=O)c2n[nH]c3ccc(-c4cnn(C5CCN(C)CC5)c4)cc23)s1 [compound 114] | ≥ 3 | 62.8
0.684 | 0.001 | 0.391 | O=C(Nc1ccc(OC(F)F)cc1)c1n[nH]c2ccc(-c3cnc4n3CCNC4)cc12 [compound 116] | 0.013 | 61.2
0.645 | 0.002 | 0.147 | Cc1cc(-c2ccc3[nH]nc(C(=O)Nc4ccc(OC5CCN(C)CC5)cc4)c3c2)sn1 [compound 117] | 0.0442 | 94.4
0.849 | 0.008 | 0.601 | O=C(Nc1cccnc1)c1n[nH]c2cnc(-c3cncc(CN4CCCCC4)c3)cc12 [compound 118] | 0.138 | 21.1
0.0006 | 0.001 | 0.057 | CC(C)CC(=O)Nc1cncc(-c2cnc3[nH]nc(-c4nc5c(-c6cccc(F)c6)cncc5[nH]4)c3c2)c1 [compound 125] | ≥ 3 | –
